Values of other authors as cited in US20210298340A1, “Cannabis-Infused Product with Extended Cannabinoid Profile User Experience” (HEXO Operations Inc., priority 2018, published 2021).
Like-named read-outs stand apart in the source and are kept apart here.

Columns and labels:
[1] = dogs; emulsion with droplet size 119 nm or 52 nm
[2] = rats; solution in MCT oil or emulsion with droplet size 160 nm or 710 nm
[3] = tested on: skin; conditions: 3 macro-emulsions >1000 nm and 3 nano-emulsions <100 nm

For `CCCCN(CCCC)CCC(O)c1cc2c(Cl)cc(Cl)cc2c2cc(C(F)(F)F)ccc12` (stereo not drawn) [halofantrine], the bioavailability [1] is listed as “comparable”.

In the case of `COc1nc(C(Cl)(Cl)Cl)c(Cl)c(OC)c1Cl` [penclomedine], the bioavailability [2] is given as “comparable”.

For `CCCCNc1ccc(C(=O)OCCN(C)C)cc1` [tetracaine], the “influence of emulsion droplet size on in vitro dermal and transdermal skin penetration” value [3] is given as “no influence”.
